Assay results published in publication PMC3996155, “The crystal structure of fibroblast growth factor 18 (FGF18)” (Protein & Cell, 2014).

Biological target: T1, FGF18 (Homo sapiens, UniProt O76093)
T1 construct: residues 50-194 of the 207-residue precursor (signal peptide 1-27 absent), expressed in Escherichia coli, purified
T1 sequence (O76093 50-194): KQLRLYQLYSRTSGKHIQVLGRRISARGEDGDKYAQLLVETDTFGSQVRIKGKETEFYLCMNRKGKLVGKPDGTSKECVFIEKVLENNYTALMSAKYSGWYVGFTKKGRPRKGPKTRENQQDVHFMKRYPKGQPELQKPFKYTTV
Test: isothermal titration calorimetry
Format: binding
Conditions: size-defined heparin oligosaccharide, sulfation pattern not stated; error exceeds the value; read-out: affinity

heparin oligosaccharides of 6 dp
Kd: 2200 nM
